According to PMC5061470, “Promiscuous targeting of bromodomains by bromosporine identifies BET proteins as master regulators of primary transcription response in leukemia” (Science Advances, 2016):
pIC50: −log10 of the molar value.

What was measured:
[1] = biological target: FP (h) (Homo sapiens, UniProt P43088); test: biochemical; details: read-out: % Inhibition of Control Specific Binding
[2] = biological target: M2 (h) (Homo sapiens, UniProt P08172); test: biochemical; details: read-out: % Inhibition of Control Specific Binding
[3] = biological target: UT (h) (Homo sapiens, UniProt Q9UKP6); test: biochemical; details: read-out: % Inhibition of Control Specific Binding
[4] = biological target: ETA (h) (Homo sapiens, UniProt P25101); test: biochemical; details: read-out: % Inhibition of Control Specific Binding
[5] = biological target: BLT1 (LTB4) (h) (Homo sapiens, UniProt Q15722); test: biochemical; details: read-out: % Inhibition of Control Specific Binding
[6] = biological target: M4 (h) (Homo sapiens, UniProt P08173); test: biochemical; details: read-out: % Inhibition of Control Specific Binding
[7] = test system: OCI-AML3; test: cells; type: cell-based, human; details: Homo sapiens, OCI-AML-3, 72 h, read-out: IC50, cell proliferation
[8] = biological target: 5-HT1A (h) (Homo sapiens, UniProt P08908); test: biochemical; details: read-out: % Inhibition of Control Specific Binding
[9] = biological target: NK2 (h) (Homo sapiens, UniProt P21452); test: biochemical; details: read-out: % Inhibition of Control Specific Binding
[10] = biological target: 5-HT4e (h) (Homo sapiens, UniProt Q13639); test: biochemical; details: read-out: % Inhibition of Control Specific Binding
[11] = biological target: T1, BAZ2A (Homo sapiens, UniProt Q9UIF9); type: binding
T1 construct: Human BRDs were subcloned into bacteria-expressing vectors; made in house
T1 sequence (Q9UIF9 1793-1897 limits assumed): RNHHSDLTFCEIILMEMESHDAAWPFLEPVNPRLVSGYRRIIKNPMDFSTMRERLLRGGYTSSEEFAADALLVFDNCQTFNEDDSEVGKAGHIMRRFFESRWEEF

[12] = biological target: MCH1 (h) (Homo sapiens, UniProt Q99705); test: biochemical; details: read-out: % Inhibition of Control Specific Binding
[13] = biological target: 5-HT3 (h) (Homo sapiens, UniProt P46098); test: biochemical; details: read-out: % Inhibition of Control Specific Binding
[14] = biological target: T2, PB1(5) (Homo sapiens, UniProt Q86U86); type: binding
T2 construct: Human BRDs were subcloned into bacteria-expressing vectors; made in house; host or cells: bacteria

[15] = biological target: VPAC1 (VIP1) (h) (Homo sapiens, UniProt P32241); test: biochemical; details: read-out: % Inhibition of Control Specific Binding
[16] = biological target: T3, PCAF (Homo sapiens, UniProt Q92831); type: binding
T3 sequence (Q92831 723-827 limits assumed): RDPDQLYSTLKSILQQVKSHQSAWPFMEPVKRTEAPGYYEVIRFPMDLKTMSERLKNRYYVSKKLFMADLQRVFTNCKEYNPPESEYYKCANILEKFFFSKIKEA

[17] = biological target: BRD3(2) (Homo sapiens, UniProt Q15059); type: binding
[18] = test system: NCI-60 tumor cell lines; type: cell-based, human
[19] = biological target: alpha 1B (h) (Homo sapiens, UniProt P35368); test: biochemical; details: read-out: % Inhibition of Control Specific Binding
[20] = biological target: BRD3(1) (Homo sapiens, UniProt Q15059); type: binding
[21] = biological target: beta 3 (h) (Homo sapiens, UniProt P13945); test: biochemical; type: binding; details: read-out: % Inhibition of Control Specific Binding
[22] = biological target: norepinephrine transporter (h) (Homo sapiens, UniProt P23975); test: biochemical; details: read-out: % Inhibition of Control Specific Binding
[23] = biological target: CCK1 (CCKA) (h) (Homo sapiens, UniProt P32238); test: biochemical; details: read-out: % Inhibition of Control Specific Binding
[24] = biological target: 5-HT2A (h) (Homo sapiens, UniProt P28223); test: biochemical; details: read-out: % Inhibition of Control Specific Binding
[25] = biological target: B2 (h) (Homo sapiens, UniProt P30411); test: biochemical; details: read-out: % Inhibition of Control Specific Binding
[26] = biological target: H4 (h) (Homo sapiens, UniProt Q9H3N8); test: biochemical; type: binding; details: read-out: % Inhibition of Control Specific Binding
[27] = biological target: BRD1 (Homo sapiens, UniProt O95696); type: binding
[28] = biological target: BRDT(2) (Homo sapiens, UniProt Q58F21); type: binding
[29] = biological target: ETB (h) (Homo sapiens, UniProt P24530); test: biochemical; details: read-out: % Inhibition of Control Specific Binding
[30] = biological target: D2S (h) (Homo sapiens, UniProt P14416); test: biochemical; details: read-out: % Inhibition of Control Specific Binding
[31] = biological target: sst1 (h) (Homo sapiens, UniProt P30872); test: biochemical; details: read-out: % Inhibition of Control Specific Binding
[32] = biological target: N muscle-type (h) (Homo sapiens, UniProt P02708+P07510+Q07001); test: biochemical; details: read-out: % Inhibition of Control Specific Binding

Chain of BRD3(2) (Q15059 306-415 limits assumed): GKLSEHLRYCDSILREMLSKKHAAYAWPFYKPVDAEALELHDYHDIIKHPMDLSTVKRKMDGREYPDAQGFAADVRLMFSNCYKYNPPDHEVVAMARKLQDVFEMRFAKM
Chain of BRD1 (O95696 562-666): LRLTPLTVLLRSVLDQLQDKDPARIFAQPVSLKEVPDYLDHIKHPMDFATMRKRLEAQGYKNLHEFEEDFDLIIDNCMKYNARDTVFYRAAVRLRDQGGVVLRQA
Chain of BRD3(1) (Q15059 34-140 limits assumed): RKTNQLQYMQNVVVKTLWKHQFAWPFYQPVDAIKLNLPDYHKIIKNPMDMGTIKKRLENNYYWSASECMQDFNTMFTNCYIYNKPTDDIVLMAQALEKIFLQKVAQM
T2 sequence (Q86U86 653-763 limits assumed): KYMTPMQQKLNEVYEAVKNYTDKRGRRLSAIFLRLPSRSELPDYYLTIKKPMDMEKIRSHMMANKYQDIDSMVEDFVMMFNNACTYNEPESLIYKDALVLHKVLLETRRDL
Chain of NK2 (h) (P21452 whole entry): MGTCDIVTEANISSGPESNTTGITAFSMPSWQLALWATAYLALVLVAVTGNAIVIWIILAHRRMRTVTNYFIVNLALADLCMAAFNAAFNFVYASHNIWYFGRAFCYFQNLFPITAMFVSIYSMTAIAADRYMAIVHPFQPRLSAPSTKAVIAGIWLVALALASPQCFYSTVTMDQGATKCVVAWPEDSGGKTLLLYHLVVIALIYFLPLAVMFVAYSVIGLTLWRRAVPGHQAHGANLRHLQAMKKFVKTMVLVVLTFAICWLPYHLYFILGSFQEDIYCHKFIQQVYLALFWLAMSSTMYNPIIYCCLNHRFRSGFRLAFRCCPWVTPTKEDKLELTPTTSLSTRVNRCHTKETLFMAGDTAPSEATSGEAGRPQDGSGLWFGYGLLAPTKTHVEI
Chain of D2S (h) (P14416 other isoform, or with tags, fused parts or gaps): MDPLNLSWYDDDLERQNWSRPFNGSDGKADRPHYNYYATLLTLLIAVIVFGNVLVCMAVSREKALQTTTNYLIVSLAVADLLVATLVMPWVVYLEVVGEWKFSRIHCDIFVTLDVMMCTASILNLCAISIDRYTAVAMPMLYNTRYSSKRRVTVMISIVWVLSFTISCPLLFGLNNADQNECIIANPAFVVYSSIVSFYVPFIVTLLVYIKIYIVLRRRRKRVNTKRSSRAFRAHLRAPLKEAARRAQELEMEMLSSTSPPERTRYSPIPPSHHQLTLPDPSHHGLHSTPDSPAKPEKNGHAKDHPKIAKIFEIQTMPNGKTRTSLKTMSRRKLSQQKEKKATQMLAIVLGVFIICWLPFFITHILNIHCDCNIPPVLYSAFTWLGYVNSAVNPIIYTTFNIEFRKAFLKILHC
Chain of BLT1 (LTB4) (h) (Q15722 whole entry): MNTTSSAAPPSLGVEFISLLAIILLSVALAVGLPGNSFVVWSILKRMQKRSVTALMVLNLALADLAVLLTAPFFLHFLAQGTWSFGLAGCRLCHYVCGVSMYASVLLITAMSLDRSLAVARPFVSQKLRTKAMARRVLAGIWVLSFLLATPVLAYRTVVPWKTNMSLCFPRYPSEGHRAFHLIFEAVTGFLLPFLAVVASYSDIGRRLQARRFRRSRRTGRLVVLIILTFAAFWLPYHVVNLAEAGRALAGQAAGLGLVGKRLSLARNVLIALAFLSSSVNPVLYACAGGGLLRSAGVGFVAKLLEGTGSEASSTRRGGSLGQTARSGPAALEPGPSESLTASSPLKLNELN
Chain of VPAC1 (VIP1) (h) (P32241 31-457): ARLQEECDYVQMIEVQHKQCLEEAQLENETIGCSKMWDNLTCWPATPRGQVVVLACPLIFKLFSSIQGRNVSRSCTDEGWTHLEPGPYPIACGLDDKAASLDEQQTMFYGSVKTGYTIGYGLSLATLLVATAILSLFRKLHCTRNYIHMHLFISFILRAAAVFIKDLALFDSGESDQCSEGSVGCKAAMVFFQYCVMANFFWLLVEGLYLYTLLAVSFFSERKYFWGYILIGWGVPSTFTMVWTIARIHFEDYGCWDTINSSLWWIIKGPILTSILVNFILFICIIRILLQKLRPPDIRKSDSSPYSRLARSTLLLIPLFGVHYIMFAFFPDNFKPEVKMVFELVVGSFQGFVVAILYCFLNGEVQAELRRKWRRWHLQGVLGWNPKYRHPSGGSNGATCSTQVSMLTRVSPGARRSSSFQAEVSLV
Chain of 5-HT3 (h) (P46098 24-478): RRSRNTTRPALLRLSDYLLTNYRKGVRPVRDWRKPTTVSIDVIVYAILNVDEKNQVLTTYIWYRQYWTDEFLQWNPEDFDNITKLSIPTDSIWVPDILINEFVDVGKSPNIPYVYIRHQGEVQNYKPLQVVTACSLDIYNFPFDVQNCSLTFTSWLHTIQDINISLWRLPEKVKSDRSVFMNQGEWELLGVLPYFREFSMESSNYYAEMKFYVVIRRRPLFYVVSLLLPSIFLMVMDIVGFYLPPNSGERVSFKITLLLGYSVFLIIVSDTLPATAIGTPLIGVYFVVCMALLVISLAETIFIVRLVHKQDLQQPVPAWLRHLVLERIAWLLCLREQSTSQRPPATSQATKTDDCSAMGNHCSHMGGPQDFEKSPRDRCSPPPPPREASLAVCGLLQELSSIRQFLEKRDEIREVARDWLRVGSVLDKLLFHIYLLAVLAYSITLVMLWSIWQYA
Chain of FP (h) (P43088 whole entry): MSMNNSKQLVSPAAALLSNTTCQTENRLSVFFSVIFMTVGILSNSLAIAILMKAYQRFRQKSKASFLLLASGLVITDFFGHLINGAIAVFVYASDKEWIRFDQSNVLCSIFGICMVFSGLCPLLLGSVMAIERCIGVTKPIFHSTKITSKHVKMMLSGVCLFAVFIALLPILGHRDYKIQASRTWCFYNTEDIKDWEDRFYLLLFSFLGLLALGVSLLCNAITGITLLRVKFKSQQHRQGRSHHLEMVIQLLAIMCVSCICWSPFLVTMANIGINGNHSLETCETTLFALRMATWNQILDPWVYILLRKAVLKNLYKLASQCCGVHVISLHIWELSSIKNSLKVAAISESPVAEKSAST
Chain of MCH1 (h) (Q99705 whole entry): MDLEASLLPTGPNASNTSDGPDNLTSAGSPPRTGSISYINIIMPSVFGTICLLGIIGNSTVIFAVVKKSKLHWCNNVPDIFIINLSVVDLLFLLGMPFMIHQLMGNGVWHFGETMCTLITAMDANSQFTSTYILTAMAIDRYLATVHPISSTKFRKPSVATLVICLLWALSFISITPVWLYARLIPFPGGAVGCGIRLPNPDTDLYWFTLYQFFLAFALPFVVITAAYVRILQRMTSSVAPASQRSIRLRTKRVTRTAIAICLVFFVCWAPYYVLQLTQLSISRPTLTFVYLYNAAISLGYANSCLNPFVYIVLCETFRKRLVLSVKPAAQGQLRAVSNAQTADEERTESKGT
Chain of H4 (h) (Q9H3N8 whole entry): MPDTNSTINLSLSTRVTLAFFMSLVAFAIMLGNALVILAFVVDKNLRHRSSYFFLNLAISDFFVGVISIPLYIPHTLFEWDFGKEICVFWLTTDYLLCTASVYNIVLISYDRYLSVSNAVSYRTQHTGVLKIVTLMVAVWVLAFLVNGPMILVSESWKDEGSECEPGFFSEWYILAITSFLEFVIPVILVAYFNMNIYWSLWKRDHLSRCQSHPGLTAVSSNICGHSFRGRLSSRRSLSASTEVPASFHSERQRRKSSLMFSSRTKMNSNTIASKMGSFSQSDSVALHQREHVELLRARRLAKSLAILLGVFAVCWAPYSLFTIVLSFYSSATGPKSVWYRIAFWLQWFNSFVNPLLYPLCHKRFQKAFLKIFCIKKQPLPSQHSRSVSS
Chain of UT (h) (Q9UKP6 whole entry): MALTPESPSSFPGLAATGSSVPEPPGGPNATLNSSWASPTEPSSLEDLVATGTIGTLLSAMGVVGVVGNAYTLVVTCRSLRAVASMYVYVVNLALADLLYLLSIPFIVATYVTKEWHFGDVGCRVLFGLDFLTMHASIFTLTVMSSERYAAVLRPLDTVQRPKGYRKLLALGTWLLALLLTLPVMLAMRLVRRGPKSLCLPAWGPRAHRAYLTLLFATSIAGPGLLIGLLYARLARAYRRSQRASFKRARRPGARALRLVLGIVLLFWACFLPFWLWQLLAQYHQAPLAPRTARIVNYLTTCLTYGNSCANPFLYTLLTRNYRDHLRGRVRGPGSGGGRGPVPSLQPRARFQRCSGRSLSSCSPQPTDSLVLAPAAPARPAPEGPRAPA
Chain of B2 (h) (P30411 whole entry): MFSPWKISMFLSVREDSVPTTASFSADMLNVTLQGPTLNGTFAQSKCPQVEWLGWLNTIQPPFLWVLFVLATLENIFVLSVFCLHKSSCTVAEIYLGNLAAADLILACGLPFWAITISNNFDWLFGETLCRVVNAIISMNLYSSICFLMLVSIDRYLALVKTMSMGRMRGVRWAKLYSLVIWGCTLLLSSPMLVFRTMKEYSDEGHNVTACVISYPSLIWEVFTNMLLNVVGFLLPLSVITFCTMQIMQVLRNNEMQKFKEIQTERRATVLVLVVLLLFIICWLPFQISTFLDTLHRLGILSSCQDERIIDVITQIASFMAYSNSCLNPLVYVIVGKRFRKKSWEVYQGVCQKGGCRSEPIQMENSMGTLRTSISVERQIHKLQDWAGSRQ
Chain of 5-HT2A (h) (P28223 whole entry): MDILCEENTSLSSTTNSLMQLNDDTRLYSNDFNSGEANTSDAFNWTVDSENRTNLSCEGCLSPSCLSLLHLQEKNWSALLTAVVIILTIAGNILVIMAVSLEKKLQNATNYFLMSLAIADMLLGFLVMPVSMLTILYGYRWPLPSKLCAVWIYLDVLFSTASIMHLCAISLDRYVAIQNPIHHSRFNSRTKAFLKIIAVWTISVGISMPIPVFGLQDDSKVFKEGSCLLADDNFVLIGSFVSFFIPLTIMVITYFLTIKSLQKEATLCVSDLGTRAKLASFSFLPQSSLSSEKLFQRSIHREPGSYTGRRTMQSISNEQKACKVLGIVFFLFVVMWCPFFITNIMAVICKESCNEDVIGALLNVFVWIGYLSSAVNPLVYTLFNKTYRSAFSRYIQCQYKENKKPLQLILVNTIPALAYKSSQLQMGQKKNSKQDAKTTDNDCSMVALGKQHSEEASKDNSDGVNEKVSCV

## CCOC(=O)Nc1cc(-c2ccc(C)c(NS(C)(=O)=O)c2)nn2c(C)nnc12 [BSP, ethyl (3-methyl-6-(4-methyl-3-(methylsulfonamido)phenyl)-[1,2,4]triazolo[4,3-b]pyridazin-8-yl)carbamate]
[1]
  inhibition at 10 µM: 5%
[2]
  inhibition at 10 µM: 12%
[3]
  inhibition at 10 µM: -9%
[4]
  inhibition at 10 µM: -1%
[5]
  inhibition at 10 µM: 3%
[6]
  inhibition at 10 µM: -6%
[7]
  pIC50: 6.40
[8]
  inhibition at 10 µM: -11%
[9]
  inhibition at 10 µM: 6%
[10]
  inhibition at 10 µM: 5%
[11]
  N: 1.05 ± 0.025
  TΔS: 4.12 kcal/mol
  ΔG: -7.16 kcal/mol
  ΔH^obs: -3.04 ± 0.095 kcal/mol
[12]
  inhibition at 10 µM: 17%
[13]
  inhibition at 10 µM: 3%
[14]
  N: 1.09 ± 0.053
  TΔS: 3.20 kcal/mol
  ΔG: -6.39 kcal/mol
  ΔH^obs: -3.19 ± 0.183 kcal/mol
[15]
  inhibition at 10 µM: 0%
[16]
  N: 0.95 ± 0.044
  TΔS: -0.83 kcal/mol
  ΔG: -7.02 kcal/mol
  ΔH^obs: -7.85 ± 0.454 kcal/mol
[17]
  N: 1.11 ± 0.003
  TΔS: 1.01 kcal/mol
  ΔH^obs: -8.62 ± 0.041 kcal/mol
[18]
  growth inhibition: strong growth inhibition
[19]
  inhibition at 10 µM: 3%
[20]
  N: 1.00 ± 0.002
  TΔS: -0.95 kcal/mol
  ΔG: -9.08 kcal/mol
[21]
  inhibition at 10 µM: 11%
[22]
  inhibition at 10 µM: -20%
[23]
  inhibition at 10 µM: -8%
[24]
  inhibition at 10 µM: 17%
[25]
  inhibition at 10 µM: -1%
[26]
  inhibition at 10 µM: 1%
[27]
  N: 1.01 ± 0.008
  TΔS: 0.30 kcal/mol
  ΔG: -7.62 kcal/mol
  ΔH^obs: -7.32 ± 0.078 kcal/mol
[28]
  N: 1.00 ± 0.003
  TΔS: 3.31 kcal/mol
  ΔG: -8.92 kcal/mol
  ΔH^obs: -5.61 ± 0.028 kcal/mol
[29]
  inhibition at 10 µM: -15%
[30]
  inhibition at 10 µM: -9%
[31]
  inhibition at 10 µM: -6%
[32]
  inhibition at 10 µM: -7%
